In patent US20120184548A1, “CARBOXYLIC ACID ARYL AMIDES” (priority 2011, published 2012):
pEC50, pIC50: −log10 of the molar value.

Tests used:
Human DYRK1B = molecular target: T1, Human DYRK1B (Homo sapiens, UniProt Q9Y463); assay: DYRK1B Kinase TR-FRET (IMAP-Tb) Assay; format: biochemical; details: for pIC50: TR-FRET, ATP 70 μM, 37° C. for 60 minutes, averages of multiple runs, read-out: Enzyme IC50 DYRK1B
T1 construct: purchased Invitrogen PR8350B (former PV4649)
Text: The kinase TR-FRET (IMAP-Tb) assay uses a fluorescence labeled substrate peptide in the kinase reaction. Upon phosphorylation by the kinase, phosphopeptide is produced, which will be detected by the binding solution provided in IMAP TR-FRET binding kit. After the completion of the kinase reaction, the reaction will be stopped by adding the binding solution containing terbium tracer. This tracer is immobilized on the surface of the IMAP beads, which also contain metal ions on the beads that bind to the phospho-groups of the products. Thus the phosphorylated product of the reaction can enter into close proximity to the tracer, producing resonance energy transfer. Due to the long lifetime of terbium (Tb) fluorescence the detection can be run in time resolved mode, which virtually eliminates fluorescence interference from assay components or compounds. […] IC50 is the amount of test compound that inhibits 50% of the activity of DYRK1B in this assay. […] 1. Human DYRK1B: from Invitrogen. Part # PR8350B (former PV4649) 2. Substrate Peptide: RRRFRPASPLRGPPK 3. IMAP TR-FRET IPP Explorer Kit: from Molecular Devices. Part # R8157 4. Kinase Assay Buffer (KAB): 10 mM HEPES pH 7.0, 50 mM NaCl, 5 mM MgCl2, 1 mM DTT, 1 mM NaVO4, 200 μg/mL BSA (0.02%) 5. Assay Plate: Remp polypropylene clear 384-well microplate. Cat#23490-102 6. Detection Plate: Costa black 384-well microplate. Cat #3710 Assay Procedure: This assay was performed as follows: 1. Transfer 1.5 μL of 20× compound solution to each well of an assay plate. 2. Add to each well 22.5 μL of KAB Buffer. 3. Add to each well 3 μL of the solution of DYRK1B and ATP. […] Add to each well 3 μL of the substrate peptide. […] Incubate the assay plates at 37° C. for 60 minutes. 6. Add 18 μL of Detection Solution (1:800 diluted Progress bead stock, 1:400 diluted Tb stock, 80% Buffer A, and 20% Buffer B) into each well of detection plates. 7. Transfer 6 μL of assay solution from the assay plate to the detection plate. 8. Shake detection plates for 30 minutes. 9. Read plates in Envision with wavelength set at excitation 340 nm for Tb, emission 490 nm, and […]. 10. Calculation: TR-FRET Signal=(Reading at […])×2000000

[1] = system: SW620 human colon cancer cells; assay: SW620 Cell Viability Assay (CellTiter-Glo); format: cell-based; details: SW-620, 96 h, 4 days incubation, read-out: Cellular EC50 SW620
Description: 1. Cell Plate Preparation: SW620 human colon cancer cells (known to express DYRK1B), obtained from ATCC, were seeded into 96-well plates at […] in 50 μL of media. • Harvested the required number of cells (counts & viability determined by Guava Viacount). • Centrifuge cells to pellet and removed supernant. • Resuspended in growth media (50 μL/well) & pipetted thoroughly to break up clumps. • Setup for ˜100 wells/plate, therefore, VT=5 mL/plate @ 1.2×10^5 cells/mL. 1A. Some cells (S-) were allowed to attach for 24 hrs, serum starved for 48 hrs, and then followed with treatments of test compound.
Test Compound solution was prepared in regular corresponding media supplemented with serum
2. Test Compound Preparation: Test compounds were solubilized in either DMSO or media and prepared at various stock concentrations. • All compounds were incubated at 37° C. for 30 minutes and vortexed. • (5 mM stocks of test compound were prepared for non-soluble drugs)
3. Test Compound Plate Preparation:
• The 10 mM test compound stock was diluted to a concentration of 100× the final Cmax concentration. • Then the test compound stock is diluted 50-fold in media and/or second test compound for a final Cmax concentration in the test compound plate. • The Cmax in the test compound plate (2% DMSO) is 2-fold higher than the final Cmax in the cell plate (60 uL titrations were 1:3). 4. Viability Assay: This assay was performed as follows: • Transfer 50 μL of test compound solution per well from the test compound plate onto the cell plate prepared in Step #1. • Mix the plate with treated cells by pipetting up and down three times with 200 μL multi-channel pipet. • Incubate the cells in 5% CO2 incubator @ 37° C. for 4 days. • Run the CellTiter-Glo™ Luminescent Cell Viability Assay. The results of this assay, given as EC50 values, indicate the concentration of test compound that inhibits tumor cell proliferation by 50%.

Human DYRK1A = molecular target: T2, Human DYRK1A (Homo sapiens, UniProt Q13627); assay: DYRK1A Kinase TR-FRET (IMAP-Tb) Assay; format: biochemical; details: for pIC50: TR-FRET, ATP 70 μM, 37° C. for 60 minutes, averages of multiple runs, read-out: Enzyme IC50 DYRK1A; for inhibition at 10 µM: 10 μM test compound, reported where IC50 was not determined, read-out: Enzyme DYRK1A % inhibition at 10 μM test compound concentration
T2 construct: purchased Invitrogen PV3997
Text: The kinase TR-FRET (IMAP-Tb) assay uses a fluorescence labeled substrate peptide in the kinase reaction. Upon phosphorylation by the kinase, phosphopeptide is produced, which will be detected by the binding solution provided in IMAP TR-FRET binding kit. After the completion of the kinase reaction, the reaction will be stopped by adding the binding solution containing terbium tracer. This tracer is immobilized on the surface of the IMAP beads, which also contain metal ions on the beads that bind to the phospho-groups of the products. Thus the phosphorylated product of the reaction can enter into close proximity to the tracer, producing resonance energy transfer. Due to the long lifetime of terbium (Tb) fluorescence the detection can be run in time resolved mode, which virtually eliminates fluorescence interference from assay components or compounds.
The TR-FRET signal measurement from this assay, given as an IC50 measurement, is a measure of a test compound's ability to interfere with the phosphorylation of the peptide substrate, that is it inhibits the phosphorylation of the substrate peptide by DYRK1A, and is thus a measure of the test compound's ability to inhibit the activity of DYRK1A.
1. Human DYRK1A: from Invitrogen. Part # PV3997
2. Substrate Peptide: […]
3. IMAP TR-FRET IPP Explorer Kit: from Molecular Devices. Part # R8157 4. Kinase Assay Buffer (KAB): 10 mM HEPES pH 7.0, 50 mM NaCl, 5 mM MgCl2, 1 mM DTT, 1 mM NaVO4, 200 μg/mL BSA (0.02%) 5. Assay Plate: Remp polypropylene clear 384-well microplate. […] Detection Plate: Costa black 384-well microplate. […] Transfer 1.5 μL of 20× compound solution to each well of an assay plate. 2. Add to each well 22.5 μL of KAB Buffer. 3. Add to each well 3 μL of the solution of DYRK1A and ATP. […] Add to each well 3 μL of the substrate peptide. The assay concentration is 1.0 μM 5. Incubate the assay plates at 37° C. for 60 minutes. 6. Add 18 μL of Detection Solution (1:800 diluted Progress bead stock, 1:400 diluted Tb stock, 80% Buffer A, and 20% Buffer B) into each well of detection plates. 7. Transfer 6 μL of assay solution from the assay plate to the detection plate. 8. Shake detection plates for 30 minutes. 9. Read plates in Envision with wavelength set at excitation 340 nm for Tb, emission 490 nm, and […].

T1 sequence (Q9Y463 whole entry): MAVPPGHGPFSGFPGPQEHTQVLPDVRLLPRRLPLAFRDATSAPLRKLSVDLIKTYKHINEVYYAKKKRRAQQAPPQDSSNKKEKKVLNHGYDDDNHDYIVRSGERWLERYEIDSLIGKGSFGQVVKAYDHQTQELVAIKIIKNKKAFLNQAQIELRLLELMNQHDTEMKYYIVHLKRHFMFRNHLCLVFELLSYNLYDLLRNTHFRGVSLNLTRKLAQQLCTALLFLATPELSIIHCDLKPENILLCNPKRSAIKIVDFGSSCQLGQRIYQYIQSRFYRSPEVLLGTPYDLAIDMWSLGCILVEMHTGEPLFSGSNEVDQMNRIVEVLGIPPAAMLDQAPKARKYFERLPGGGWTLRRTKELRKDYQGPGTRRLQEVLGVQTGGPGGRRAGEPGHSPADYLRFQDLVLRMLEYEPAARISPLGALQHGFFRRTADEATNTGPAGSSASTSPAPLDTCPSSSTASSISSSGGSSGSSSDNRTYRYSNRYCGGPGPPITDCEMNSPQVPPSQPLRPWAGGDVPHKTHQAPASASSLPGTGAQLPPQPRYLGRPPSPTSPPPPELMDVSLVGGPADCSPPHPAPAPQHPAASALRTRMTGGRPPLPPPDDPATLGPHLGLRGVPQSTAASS

Row | SMILES | pIC50 (Human DYRK1B) | pEC50 [1] | pIC50 (Human DYRK1A) | inhibition at 10 µM (Human DYRK1B; 10 μM test compound, reported where IC50 was not determined, read-out: Enzyme DYRK1B % inhibition at 10 μM test compound concentration) [%] | inhibition at 10 µM (Human DYRK1A) [%]
1 | COCCOc1cc2cc(C(=O)Nc3cc(C(=O)N[C@H](CCN)c4ccccc4)ccc3C)c(=O)[nH]c2cc1OC (single isomer, unassigned) [Example 58] | 7.54 | 5.39 | 8.05 | – | –
2 | COc1cc2cc(C(=O)Nc3cc(C(=O)NC(CCN)c4ccccc4)ccc3C)c(=O)[nH]c2cc1OC (stereo in doubt) [Example 47, 6,7-Dimethoxy-2-oxo-1,2-dihydro-quinoline-3-carboxylic acid [5-((R)-3-amino-1-phenyl-propylcarbamoyl)-2-methyl-phenyl]-amide] | 7.85 | < 5.52 | 7.07 | – | –
3 | COC(=O)c1ccc(C)c(NC(=O)c2cc3cc(OC)c(OC)cc3[nH]c2=O)c1 [Example 17, 3-[(6,7-Dimethoxy-2-oxo-1,2-dihydro-quinoline-3-carbonyl)-amino]-4-methyl-benzoic acid methyl ester] | 6.25 | < 5.00 | – | – | –
4 | COC(=O)c1ccc(Cl)c(NC(=O)c2cc3cc(OC)c(OC)cc3[nH]c2=O)c1 [Example 19, 4-Chloro-3-[(6,7-dimethoxy-2-oxo-1,2-dihydro-quinoline-3-carbonyl)-amino]-benzoic acid methyl ester] | – | < 5.00 | – | 47 | 44
5 | COc1cc2cc(C(=O)Nc3cc(C(=O)NC(CN)c4ccccc4)ccc3C)c(=O)[nH]c2cc1OC (stereo not drawn) [Example 31, 6,7-Dimethoxy-2-oxo-1,2-dihydro-quinoline-3-carboxylic acid [5-(2-amino-1-phenyl-ethylcarbamoyl)-2-methyl-phenyl]-amide] | 6.85 | 5.72 | – | – | –
6 | COc1cc2cc(C(=O)Nc3cc(C(=O)NC(CN)c4cccc(Cl)c4)ccc3C)c(=O)[nH]c2cc1OC (stereo not drawn) [Example 50, 6,7-Dimethoxy-2-oxo-1,2-dihydro-quinoline-3-carboxylic acid {5-[2-amino-1-(3-chloro-phenyl)-ethylcarbamoyl]-2-methyl-phenyl}-amide] | 7.14 | 5.95 | – | – | –
7 | COc1cc2[nH]c(=O)c(C(=O)Nc3cc(C(=O)NCc4cccc(Cl)c4)ccc3C)cc2cc1O [Example 68, 6-Hydroxy-7-methoxy-2-oxo-1,2-dihydro-quinoline-3-carboxylic acid [5-(3-chloro-benzylcarbamoyl)-2-methyl-phenyl]-amide] | 6.72 | – | 7.24 | – | –
8 | COCCOCCOc1cc2cc(C(=O)Nc3cc(C(=O)NCc4cccc(Cl)c4)ccc3C)c(=O)[nH]c2cc1OC [Example 70, 7-Methoxy-6-[2-(2-methoxy-ethoxy)-ethoxy]-2-oxo-1,2-dihydro-quinoline-3-carboxylic acid [5-(3-chloro-benzylcarbamoyl)-2-methyl-phenyl]-amide] | 5.77 | – | 7.17 | – | –
9 | COC(=O)c1ccc(Cl)c(NC(=O)C2Cc3cc(OC)c(OC)cc3NC2=O)c1 (stereo not drawn) [Example 71, 4-Chloro-3-[(6,7-dimethoxy-2-oxo-1,2,3,4-tetrahydro-quinoline-3-carbonyl)-amino]-benzoic acid methyl ester] | 6.07 | – | 6.16 | – | –
10 | COC(=O)c1ccc(C)c(NC(=O)C2Cc3cc(OC)c(OC)cc3NC2=O)c1 (stereo not drawn) [Example 72, 3-[(6,7-Dimethoxy-2-oxo-1,2,3,4-tetrahydro-quinoline-3-carbonyl)-amino]-4-methyl-benzoic acid methyl ester] | 5.74 | – | 5.25 | – | –
11 | COc1cc2c(cc1OC)NC(=O)C(C(=O)Nc1cc(C(=O)NCc3ccccc3)ccc1Cl)C2 (stereo not drawn) [Example 73, 6,7-Dimethoxy-2-oxo-1,2,3,4-tetrahydro-quinoline-3-carboxylic acid (5-benzylcarbamoyl-2-chloro-phenyl)-amide] | 5.63 | – | 6.06 | – | –
12 | COc1cc2c(cc1OC)NC(=O)C(C(=O)Nc1cc(C(=O)NCc3ccccc3)ccc1C)C2 (stereo not drawn) [Example 74, 6,7-Dimethoxy-2-oxo-1,2,3,4-tetrahydro-quinoline-3-carboxylic acid (5-benzylcarbamoyl-2-methyl-phenyl)-amide] | < 5.00 | – | – | – | 30
